The text below walks through data of patent US6638912B2, “Peptide compositions mimicking TGF-β activity” (The Regents of the University of California, priority 1995, dated 2003).

Like-named read-outs stand apart in the source and are kept apart here.

Assay [1] relates to NRK-49 F normal rat kidney fibroblasts. As to the kind of experiment: Growth and colony formation by NRK-49 F fibroblasts in soft agar. The assay is classed as cell-based. The protocol: The original assay for TGF-β, the ability to promote anchorage independent growth of normal fibroblasts is still one of the hallmarks of TGF-β activity. NRK-49 F fibroblasts were grown at 37° C. in DEM supplemented with 10% fetal calf serum. […] To this, either 100 nM TGF-β (positive control) or 100 nM cytomodulin was added. NRK49 F fibroblasts (5×10^4 cells/ml) were mixed with 0.3% agar were plated on the bottom of 35 mm culture dishes. Colony formation was observed starting on day 3 of culture.

For assay [2] the test system is unchanged. To be noted: in the absence of EGF and PDGF; from Massagu, J. Biol. Chem. 259 (1984); cited from earlier work.
For assay [3], the system named is human dermal fibroblasts. Kind of assay: Gene expression in human dermal fibroblasts (Northern analysis). The format is cell-based. The protocol:
(§1) Total cellular RNA was isolated using essentially the method described by Maniatis. Sambrook et al., Molecular Cloning: A Laboratory Marual, Cold Spring Harbor Laboratory Press, Second Edition (1989). Cells were lysed with 0.5% SDS and 0.1 potassium acetate. The lysate was extracted with phenol and centrifuiged at 5000 rpm for 15 minutes. The aqueous phase was precipitated with 2 volumes ethanol in 0.1 M Tris, pH 8.0 and 0.2 M NaCl. The pellet was resuspended and quantitated by measuring the ultraviolet absorbance at 260 nm. RNA purity was assessed by comparing the ultraviolet absorbance at 260 inm with that at 280 nm.
(§2) RNA (10 μg/lane) was electrophoresed at 3 to 4 v/cm through a 0.7% agarose, 2.2 M formaldehyde denaturing gel. RNA was transferred by capillary transfer to nylon membranes. RNA integrity, gel loading, and transfer efficiency were assessed by methylene blue stained 28S and 18 S bands. The filters were baked at 80° C. for 2 hours to immobilize the RNA. After baking, the filters were hybridized at 65° C. in 0.5 M NaPO4 buffer, pH 7.0, containing 1 mM EDTA, 7% sodium dodecyl sulfate, and 1% bovine serum albumin. cDNA probes were labeled with DDIG […] by the random primer method, using Klenow enzyme. Hybridization for 18 hours at 65° C. followed by washing, was performed.
(§3) Data were analyzed by scanning digoxigenin-dVTP according to manufacturer's procedure (Boehringer Mannheim Biochemica, DIG DNA labelling kit, Cat. No. 1175033).

The test system of assay [4] is human osteogenic sarcoma (HOS) cell line. Kind of assay: Gene expression in HOS cells (Northern analysis). The format is cell-based. As to the method:
as §1, §2, §3

The test system of assay [5] is Mv-1-Lu mink lung epithelial cells. Kind of assay: Inhibition of DNA synthesis (3H-thymidine incorporation) and proliferation of Mv-1-Lu cells. The assay is classed as cell-based. The conditions noted are these: 10−9 to 10−6 M range. As to the method: The effect of TGF-β and cytomodulin were evaluated by determining the rate of […]thyidine incorporation into total acid-insoluble DNA and cell number. See generally, Sampath et al., Journal of Biological Chemistry, 267, pp. 20352-20362 (1992). DNA synthesis rates were determined in triplicate cultures after 24 hour treatment with various concentrations (10−9 M to 10^−6M) of either TGF-β or cytomodulin (which was synthesized by the Merrifield method) by adding [methyl-^3H]thymidine (2 μCi/ml, 80 Ci/mmol) for 6 hours before the termination of the culture. Incorporation was terminated by aspiration of the medium, and after washing three times with phosphate-buffered saline, the trichloroacetic acid (10%)-precipitated radioactive DNA was extracted with 1.0% (w/v) sodium dodecyl sulfate, 0.1 M NaOH and quantitated by liquid scintillation counting. For cell number determination, 1×10^5 cells were plated in flasks in MEM containing 10% FBS, and after 24 hours, the growth medium was replaced with serum-free medium containing various conceptions of TGF-β and cytomodulin. Triplicate cultures were harvested every 24 hours for the duration of 7 days, and the cell number was determined by counting cells released by trypsin digestion in a fixed volume hemacytometer.
The numbers shown at the various concentration are the ratio of the inhibition rate of the peptide being tested over the inhibition rate of cytomodulin (SEQ ID NO: 1) at the same concentration.
Tests for bioactivity were conducted as described above for DNA inhibition.
For orientation: Uptake of a labelled nucleoside into DNA is a usual measure of proliferation.

Assay [6] has as its system TGF-β activity. Kind of assay: TGF-β like activity, overall statement, test not specified. The assay is classed as cell-based.

On to TGF-β, for which the “Colony formation in soft agar” value in assay [1] (100 nM, with EGF and PDGF) was “grew colonies”; in assay [2], “does not induce colony formation”.

For the substance “L-I-A-E-A-K (LIAEAK; TGF-beta mimic) [L2]”, in assay [3], the “Expression of TGF-β” value is listed as “increased the expression”, the Expression of collagenase result was “decreased the expression” and the “Expression of type I collagen” value is given as “increased the expression”. Besides, in assay [4], the “Expression of TGF-β” value is reported as “increased the expression”, the “Expression of alkaline phosphatase” value is on record as “increased the expression” and the “Expression of type I collagen” value is listed as “increased the expression”. In addition, in assay [5], the “Inhibition of DNA synthesis / proliferation of Mv-1-Lu cells (in words)” value is reported as “inhibited the proliferation”. For the same substance, in assay [1], the “Growth and colony formation of NRK-49F cells in soft agar (in words)” value is on record as “promoted the growth”. Besides, in assay [6], the TGF-β like activity result is “at least as much TGF-β like activity as cytomodulin”.
